This is an account of results in patent publication US20140155389A1, “BICYCLIC INHIBITORS OF ALK” (ABBVIE INC., priority 2011, published 2014).

This assay addresses T1, ALK (Homo sapiens, UniProt Q9UM73).
T1 construct: purchased Millipore
Nature of the assay: ALK kinase assay (HTRF). Type of assay: biochemical. Conditions: apparent Ki from IC50 by Cheng-Prusoff; ALK (Millipore) 3 nM or 4 nM, 50 μM ATP, 1 h at room temperature; read-out: HTRF_ALK Human - Ki.

T1 sequence (Q9UM73 19-1620): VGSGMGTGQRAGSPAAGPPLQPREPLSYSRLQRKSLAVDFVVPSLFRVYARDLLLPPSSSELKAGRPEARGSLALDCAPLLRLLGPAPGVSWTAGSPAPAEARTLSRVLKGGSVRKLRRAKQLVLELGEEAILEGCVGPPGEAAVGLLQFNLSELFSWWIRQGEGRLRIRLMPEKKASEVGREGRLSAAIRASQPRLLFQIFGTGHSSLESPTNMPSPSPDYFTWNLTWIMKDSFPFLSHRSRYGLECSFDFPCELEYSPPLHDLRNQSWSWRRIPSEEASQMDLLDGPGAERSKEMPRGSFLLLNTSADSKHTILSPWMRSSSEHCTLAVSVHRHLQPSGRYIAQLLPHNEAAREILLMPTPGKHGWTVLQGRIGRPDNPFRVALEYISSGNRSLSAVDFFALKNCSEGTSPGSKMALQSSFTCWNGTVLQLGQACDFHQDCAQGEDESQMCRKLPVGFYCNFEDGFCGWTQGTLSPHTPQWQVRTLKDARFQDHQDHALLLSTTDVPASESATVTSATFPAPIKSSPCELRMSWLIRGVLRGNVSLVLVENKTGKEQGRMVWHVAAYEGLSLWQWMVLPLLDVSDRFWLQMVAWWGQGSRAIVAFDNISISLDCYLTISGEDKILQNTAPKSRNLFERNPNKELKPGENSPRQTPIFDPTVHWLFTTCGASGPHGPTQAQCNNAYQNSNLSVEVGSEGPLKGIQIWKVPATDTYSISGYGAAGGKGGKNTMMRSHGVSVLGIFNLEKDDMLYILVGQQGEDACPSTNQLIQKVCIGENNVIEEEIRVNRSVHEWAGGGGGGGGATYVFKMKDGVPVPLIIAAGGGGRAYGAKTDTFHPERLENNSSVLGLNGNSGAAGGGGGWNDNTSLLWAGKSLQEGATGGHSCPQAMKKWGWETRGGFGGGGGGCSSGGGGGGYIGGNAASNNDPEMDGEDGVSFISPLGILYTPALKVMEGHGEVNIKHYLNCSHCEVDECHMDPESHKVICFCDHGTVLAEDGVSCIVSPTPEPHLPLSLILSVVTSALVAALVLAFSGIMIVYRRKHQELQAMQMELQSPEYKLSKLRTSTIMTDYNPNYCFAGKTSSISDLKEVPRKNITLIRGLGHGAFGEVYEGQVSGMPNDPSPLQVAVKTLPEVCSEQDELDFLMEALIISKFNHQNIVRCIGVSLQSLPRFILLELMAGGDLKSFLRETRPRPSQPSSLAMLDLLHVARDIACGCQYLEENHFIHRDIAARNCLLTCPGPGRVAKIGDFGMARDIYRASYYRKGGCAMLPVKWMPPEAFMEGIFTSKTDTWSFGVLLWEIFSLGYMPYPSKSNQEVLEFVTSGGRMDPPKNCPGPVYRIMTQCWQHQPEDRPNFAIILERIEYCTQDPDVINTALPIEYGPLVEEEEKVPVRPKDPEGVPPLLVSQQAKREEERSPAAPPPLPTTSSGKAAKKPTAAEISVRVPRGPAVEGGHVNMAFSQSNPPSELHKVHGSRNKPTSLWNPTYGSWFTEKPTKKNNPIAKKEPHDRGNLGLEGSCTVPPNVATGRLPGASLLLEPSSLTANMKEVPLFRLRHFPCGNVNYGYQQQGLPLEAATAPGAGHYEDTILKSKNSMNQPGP

On to `COc1cc(C2CCNCC2)ccc1Nc1cc(Cc2c(Cl)cccc2Cl)nc2cn[nH]c(=O)c12` [Example 101, 2-(2,6-dichlorobenzyl)-4-{[2-methoxy-4-(piperidin-4-yl)phenyl]amino}pyrido[2,3-d]pyridazin-5(6H)-one], for which the Ki is 1 nM.

In the case of `COc1cc(C2CCNCC2)ccc1Nc1cc(CCN2CCOCC2)nc2cn[nH]c(=O)c12` [Example 102, 4-{[2-methoxy-4-(piperidin-4-yl)phenyl]amino}-2-[2-(morpholin-4-yl)ethyl]pyrido[2,3-d]pyridazin-5(6H)-one], the Ki came out at 331 nM.

Regarding `O=c1[nH]ncc2cc(Oc3ccccc3Cl)nc(Nc3ccc(N4CCNCC4)cn3)c12` [Example 103, 7-(2-chlorophenoxy)-5-{[5-(piperazin-1-yl)pyridin-2-yl]amino}pyrido[3,4-d]pyridazin-4(3H)-one], the Ki came out at 20 nM.

For the molecule `COc1cc(C2CCNCC2)ccc1Nc1cc(CCC2CC2)nc2cn[nH]c(=O)c12` [Example 104, 2-(2-cyclopropylethyl)-4-{[2-methoxy-4-(piperidin-4-yl)phenyl]amino}pyrido[2,3-d]pyridazin-5(6H)-one], the Ki amounted to 75 nM.

Consider `COc1cc(C(=O)N2CCCC2)ccc1Nc1nc(Oc2ccccc2Cl)cc2cnnc(O)c12` [Example 105, (4-{[7-(2-chlorophenoxy)-4-hydroxypyrido[3,4-d]pyridazin-5-yl]amino}-3-methoxyphenyl)(pyrrolidin-1-yl)methanone], for which the Ki is > 470 nM.

In the case of `CCOc1cc(C2CCNCC2)ccc1Nc1nc(Oc2ccccc2Cl)cc2cn[nH]c(=O)c12` [Example 106, 7-(2-chlorophenoxy)-5-{[2-ethoxy-4-(piperidin-4-yl)phenyl]amino}pyrido[3,4-d]pyridazin-4(3H)-one], the Ki is 21 nM.

On to `COc1cc(C2CCNCC2)ccc1Nc1cc(Cc2ccccc2F)nc2cn[nH]c(=O)c12` [Example 107, 2-(2-fluorobenzyl)-4-{[2-methoxy-4-(piperidin-4-yl)phenyl]amino}pyrido[2,3-d]pyridazin-5(6H)-one], for which the Ki came to 16 nM.

Consider `COc1cc(C2CCNCC2)ccc1Nc1cc(Cc2cccc(Cl)c2Cl)nc2cn[nH]c(=O)c12` [Example 108, 2-(2,3-dichlorobenzyl)-4-{[2-methoxy-4-(piperidin-4-yl)phenyl]amino}pyrido[2,3-d]pyridazin-5(6H)-one], for which the Ki is 8 nM.

`COc1cc(C2CCNCC2)ccc1Nc1cc(Cc2c(F)cccc2F)nc2cn[nH]c(=O)c12` [Example 109, 2-(2,6-difluorobenzyl)-4-{[2-methoxy-4-(piperidin-4-yl)phenyl]amino}pyrido[2,3-d]pyridazin-5(6H)-one]: the Ki came to 6 nM.

Take `COc1cc(C2CCNCC2)ccc1Nc1cc(Cc2cc(F)ccc2F)nc2cn[nH]c(=O)c12` [Example 110, 2-(2,5-difluorobenzyl)-4-{[2-methoxy-4-(piperidin-4-yl)phenyl]amino}pyrido[2,3-d]pyridazin-5(6H)-one]: the Ki was found to be 16 nM.

In the case of `COc1cc(C2CCNCC2)ccc1Nc1cc(Cc2cccc(F)c2F)nc2cn[nH]c(=O)c12` [Example 111, 2-(2,3-difluorobenzyl)-4-{[2-methoxy-4-(piperidin-4-yl)phenyl]amino}pyrido[2,3-d]pyridazin-5(6H)-one], the Ki stood at 15 nM.

In the case of `COc1cc(C2CCNCC2)ccc1Nc1cc(Cc2c(F)cccc2Cl)nc2cn[nH]c(=O)c12` [Example 112, 2-(2-chloro-6-fluorobenzyl)-4-{[2-methoxy-4-(piperidin-4-yl)phenyl]amino}pyrido[2,3-d]pyridazin-5(6H)-one], the Ki worked out at 4 nM.

With `COc1ccccc1Nc1nc(Nc2ccc(N3CCNCC3)cc2)cc2cnnc(O)c12` [Example 113, 5-[(2-methoxyphenyl)amino]-7-{[4-(piperazin-1-yl)phenyl]amino}pyrido[3,4-d]pyridazin-4-ol], the Ki turned out to be 58 nM.

As to `CCOc1cc(N2CCNCC2)ccc1Nc1nc(Oc2ccccc2Cl)cc2cnnc(O)c12` [Example 114, 7-(2-chlorophenoxy)-5-{[2-ethoxy-4-(piperazin-1-yl)phenyl]amino}pyrido[3,4-d]pyridazin-4-ol], the Ki is 8 nM.

Consider `COc1cc(N2CCNCC2)ccc1Nc1nc(Oc2ccccc2C#N)cc2cn[nH]c(=O)c12` [Example 115, 2-[(5-{[2-methoxy-4-(piperazin-1-yl)phenyl]amino}-4-oxo-3,4-dihydropyrido[3,4-d]pyridazin-7-yl)oxy]benzonitrile], for which the Ki was 6 nM.

For `COc1cc(CN2CCN(C)CC2)ccc1Nc1cc(Cc2ccccc2Cl)nc2cn[nH]c(=O)c12` [Example 116, 2-(2-chlorobenzyl)-4-({2-methoxy-4-[(4-methylpiperazin-1-yl)methyl]phenyl}amino)pyrido[2,3-d]pyridazin-5(6H)-one], the Ki is 33 nM.

On to `O=c1[nH]ncc2cc(Oc3ccccc3Cl)nc(Nc3ccc(N4CCNCC4)cc3OC(F)F)c12` [Example 117, 7-(2-chlorophenoxy)-5-{[2-(difluoromethoxy)-4-(piperazin-1-yl)phenyl]amino}pyrido[3,4-d]pyridazin-4(3H)-one], for which the Ki is 15 nM.

For the molecule `O=c1[nH]ncc2cc(Oc3ccccc3Cl)nc(Nc3ccc(C4CCNCC4)cn3)c12` [Example 118, 7-(2-chlorophenoxy)-5-{[5-(piperidin-4-yl)pyridin-2-yl]amino}pyrido[3,4-d]pyridazin-4(3H)-one], the Ki is 15 nM.

As for `COc1cc(N2CCNCC2)ccc1Nc1nc(Oc2ccccc2Cl)cc2c(C)nnc(O)c12` [Example 119, 7-(2-chlorophenoxy)-5-{[2-methoxy-4-(piperazin-1-yl)phenyl]amino}-1-methylpyrido[3,4-d]pyridazin-4-ol], the Ki turned out to be 15 nM.

`N#Cc1cc(N2CCNCC2)ccc1Nc1nc(Oc2ccccc2Cl)cc2cnnc(O)c12` [Example 120, 2-{[7-(2-chlorophenoxy)-4-hydroxypyrido[3,4-d]pyridazin-5-yl]amino}-5-(piperazin-1-yl)benzonitrile]: the Ki is 2 nM.
